The values that follow come from patent US5281406A, “Recovery of C60 and C70 buckminsterfullerenes from carbon soot by supercritical fluid extraction and their separation by adsorption chromatography” (Analytical Bio-Chemistry Laboratories, Inc., priority 1992, dated 1994).

≈ marks a conversion by molar mass, not a printed value. Where “and” joins values, the source holds several entries; their conditions need not be identical. Equal values may be shown once.

The nature of data set [1]: Solubility of C60 and C70 fullerenes in methylene chloride/toluene mixtures. The data set is classed as physicochemical. An excerpt: The solubilities of C60 and C70 were established for the binary solvent system of toluene and methylene chloride using mixtures varying in composition from 100% to 0% of each component.
The nature of data set [2]: Reported or stated solubility in single organic solvents (benzene, liquid toluene, organic solvents). It counts as physicochemical.
For data set [3] the following is noted: room temperature; cited from earlier work.
For data set [4] the following is noted: stable to pressures up to; Yoo and Nellis, Science, 254, p. 1489, 1991; cited from earlier work.
The conditions of data set [5]: many organic solvents, several weeks; cited from earlier work.
Where [6] appears, read: 0.0% CH2Cl2 / 100% toluene, duplicate samples 1 and 2.
The mark [7] stands for this setting: 25.0% CH2Cl2 / 75% toluene, duplicate samples 3 and 4.
[8] abbreviates: 50.0% CH2Cl2 / 50% toluene, duplicate samples 5 and 6.
The mark [9] stands for this setting: 75.0% CH2Cl2 / 25% toluene, duplicate samples 7 and 8.
Setting [10] is: 100.0% CH2Cl2 / 0% toluene, duplicate samples 9 and 10.

As usually defined, the Solubility is the concentration that dissolves in the medium under given conditions. As for `c12c3c4c5c1c1c6c7c2c2c8c3c3c9c4c4c%10c5c5c1c1c6c6c%11c7c2c2c7c8c3c3c8c9c4c4c9c%10c5c5c1c1c6c6c%11c2c2c7c3c3c8c4c4c9c5c1c1c6c2c3c41` [C60, buckminsterfullerene], the Solubility in data set [1] (setting [6]) was 3.530 mg/mL and 3.470 mg/mL; in data set [1] (setting [7]), 2.830 mg/mL (≈ 3930 µM); in data set [1] (setting [8]) it was 1.783 mg/mL and 1.797 mg/mL; in data set [1] (setting [9]), 0.895 mg/mL and 0.896 mg/mL; in data set [1] (setting [10]) it was 0.556 mg/mL and 0.526 mg/mL. The “Solubility in organic solvents (in words)” value in data set [2] is listed as “very low solubility”. For the same compound, the “Reported solubility in benzene” value in data set [3] was 5.0 mg/mL. In data set [4], the “Reported stability to pressure” value was “up to 2.5×10^6 psi”. The “Stability in organic solvents (in words)” value in data set [5] is “stable in many organic solvents for several weeks”.

As to `c12c3c4c5c1c1c6c7c2c2c8c3c3c9c4c4c%10c5c5c1c1c6c6c%11c%12c%13c%14c%15c%16c%17c%14c%14c%18c%13c%11c1c1c5c%10c5c(c%14c%10c%17c%11c%13c%16c%14c%16c%15c%12c%12c%16c(c2c7c%126)c2c8c3c(c%13c%142)c2c9c4c5c%10c%112)c%181` [C70], the Solubility is 0.611 mg/mL and 0.597 mg/mL in data set [1] (setting [6]); 0.500 mg/mL (≈ 595 µM) in data set [1] (setting [7]); 0.328 mg/mL and 0.330 mg/mL in data set [1] (setting [8]); 0.184 mg/mL (≈ 219 µM) in data set [1] (setting [9]); 0.106 mg/mL and 0.095 mg/mL in data set [1] (setting [10]). Also, the “Solubility in organic solvents (in words)” value in data set [2] is “very low solubility”.
